Literature values in EP0387265B1, “USE OF 5-AMINOSALICYCLIC ACID (5-ASA) FOR THE PRODUCTION OF A PHARMACEUTICAL PREPARATION FOR USE IN REPERFUSION TREATMENT” (priority 1987, dated 1989).
Like-named read-outs stand apart in the source and are kept apart here.

Key:
[1] = test system: reperfusion ischemic injury in the gastric mucosa; conditions: rats
[2] = test system: colitis ulcerosa; conditions: in vivo
[3] = test system: acute myocardial ischemia and reperfusion injuries; conditions: dogs; MPG together with neutrophilic antiserum; compared to a control group which received non-immune serum
[4] = rats
[5] = 250 mg intravenously, humans having normal coagulation
[6] = capable of neutralizing the toxic properties of the free radicals of oxygen; 'in contrast to' means not a radical scavenger
[7] = in vivo
[8] = humans, moderate doses
[9] = 100 or 250 mg intravenously, 6 normal test humans

For `Nc1ccc(S(=O)(=O)Nc2ccccn2)cc1` [sulfapyridine], the “protection against reperfusion ischemic injury in the gastric mucosa” value [1] is given as “not”.
In the case of `O=C([O-])c1ccccc1O.[Na+]` [sodium salicylate], the “effect against colitis ulcerosa” value [2] is listed as “no effect”.
In the case of `CC(=O)Oc1ccccc1C(=O)O` [acetylsalicylic acid], the “effect against colitis ulcerosa” value [2] is given as “no effect”.
For `CC(S)C(=O)NCC(=O)O` (stereo not shown) [MPG, N-2-mercaptopropionyl glycine], the “reduced the infarct size” value [3] is given as 63%.
In the case of `Nc1ccc(O)c(C(=O)O)c1` [5-ASA, 5-aminosalicylic acid], the nephrotoxic effect [4] is given as “nephrotoxic effect has been demonstrated”, the effect of fibrinolysis [5] is given as “has not been found to result in any effect” and the “effect of the thrombocyte function” value [5] is given as “has not been found to result in any effect”. The radical scavenger [6] was “is a radical scavenger”, the side effects [7] was “No side effects have been observed which can be related to the substance with certainty” and the “protection against reperfusion ischemic injury in the gastric mucosa” value [1] was “offers protection”. The nephrotoxic effect [8] was “does not have any noticeable nephrotoxic effect”, the distribution volume [9] was 0.4 L/kg and the half-life [9] was 35 min.
